Assays:
Type in all cases: physicochemical
[1] = Density of dry powder by Transaxial Pressure (TAP), Micromeritics GeoPyc 1360; conditions: consolidation force of 8 Newtons
[2] = Drug integrity post processing by HPLC
Method: Drug integrity post processing was assessed by High Pressure Liquid Chromatography (“HPLC”) (Hewlett Packard Series 1100 HPLC). […] For paclitaxel, the chromatographic conditions included a Nucleosil column (5:m, C18, 100A, 250×4.6 mm), a mobile phase of 2 mM H3PO4/Acetonitrile (2:3) at a flow rate of 1.5 mL/min, UV detection at 227 nm, and a run time of 25 min.

[3] = Particle size and surface area of drug particles in wetted matrices, Coulter Multisizer II; conditions: reconstituted in aqueous media; electrolyte pre-saturated with drug
Method: Particle size analysis was performed using the Coulter Multisizer II with a 50 micron aperture using siphon mode. Electrolyte was pre-saturated with the drug of interest, and filtered through a 0.22 micron filter prior to addition of lots for analysis to ensure that no portion of the drug within the lot would dissolve during the analysis.

Row | Density [1] [g/mL] | Purity (drug integrity post processing) [2] [%] | Size (mean particle size of drug particles) [3] [microns] | Surface Area (total surface area of drug particles) [3] | SMILES
1 | 0.80 | 95.7 | 2.42 | 0.88 m^2/mL of microparticles | COC1=CC(=O)C[C@@H](C)[C@]12Oc1c(Cl)c(OC)cc(OC)c1C2=O [Griseofulvin Bulk, griseofulvin]
2 | – | – | 2.89 | 0.66 m^2/mL of microparticles | COc1ccc2cc([C@H](C)C(=O)O)ccc2c1 [Naproxen Bulk, naproxen]
3 | – | 100 | – | – | CC(=O)O[C@H]1C(=O)[C@@]2(C)[C@H]([C@H](OC(=O)c3ccccc3)[C@]3(O)C[C@H](OC(=O)[C@H](O)[C@@H](NC(=O)c4ccccc4)c4ccccc4)C(C)=C1C3(C)C)[C@]1(OC(C)=O)CO[C@@H]1C[C@@H]2O [Paclitaxel Bulk, paclitaxel]
4 | 0.68 | 100 | 2.07 | 1.43 m^2/mL of microparticles | C[C@]12C=CC(=O)C=C1CC[C@@H]1[C@@H]2C(=O)C[C@@]2(C)[C@H]1CC[C@]2(O)C(=O)CO [Prednisone Bulk, prednisone]

— patent publication US8821938B2, “Porous drug matrices and methods of manufacture thereof” (Acusphere, Inc., priority 1999, dated 2014)
